Active and inactive are the calls of the source. The calls are words filed in the database; no cut-off is given here.
Assays:
[1] = tested on: SR; experiment: Growth inhibition of human SR cells at 10 uM incubated for 48 hrs by sulforhodamine B assay relative to control; type: functional; conditions: read-out: GI
[2] = tested on: SK-MEL-2; experiment: Growth inhibition of human SK-MEL-2 cells at 10 uM incubated for 48 hrs by sulforhodamine B assay relative to control; type: functional; conditions: read-out: GI
[3] = tested on: HCT-116; experiment: Growth inhibition of human HCT-116 cells incubated for 48 hrs by sulforhodamine B assay; type: functional
[4] = tested on: UO-31; experiment: Growth inhibition of human UO-31 cells incubated for 48 hrs by sulforhodamine B assay; type: functional
[5] = tested on: UACC-257; experiment: Growth inhibition of human UACC-257 cells incubated for 48 hrs by sulforhodamine B assay; type: functional
[6] = tested on: RPMI-8226; experiment: Growth inhibition of human RPMI8226 cells at 10 uM incubated for 48 hrs by sulforhodamine B assay relative to control; type: functional; conditions: read-out: GI
[7] = tested on: RPMI-8226; experiment: Growth inhibition of human RPMI-8226 cells incubated for 48 hrs by sulforhodamine B assay; type: functional; conditions: dose 10 µM
[8] = Therapeutic index, ratio of LC50 for human Panel NCI-60 (60 carcinoma cell lines) to GI50 for human Panel NCI-60 (60 carcinoma cell lines); type: functional
[9] = tested on: HOP-62; experiment: Growth inhibition of human HOP-62 cells incubated for 48 hrs by sulforhodamine B assay; type: functional
[10] = tested on: TK-10; experiment: Growth inhibition of human TK-10 cells at 10 uM incubated for 48 hrs by sulforhodamine B assay relative to control; type: functional; conditions: read-out: GI
[11] = tested on: BV-2; experiment: Antiinflammatory activity against mouse BV2 cells assessed as decrease in LPS-induced NO production at 1 to 5 uM pretreated with compound followed by LPS stimulation incubated for 4 to 48 hrs by enzyme immunoassay; type: functional, cell-based; conditions: dose 1-5 µM, time 4-48 hrs
[12] = tested on: MCF7; experiment: Growth inhibition of human MCF7 cells at 10 uM incubated for 48 hrs by sulforhodamine B assay relative to control; type: functional; conditions: read-out: GI
[13] = tested on: MDA-MB-468; experiment: Growth inhibition of human MDA-MB-468 cells incubated for 48 hrs by sulforhodamine B assay; type: functional
[14] = tested on: UACC-257; experiment: Growth inhibition of human UACC-257 cells at 10 uM incubated for 48 hrs by sulforhodamine B assay relative to control; type: functional; conditions: read-out: GI
[15] = tested on: CAKI-1; experiment: Growth inhibition of human CAKI-1 cells at 10 uM incubated for 48 hrs by sulforhodamine B assay relative to control; type: functional; conditions: read-out: GI
[16] = tested on: NCI-H460; experiment: Growth inhibition of human NCI-H460 cells incubated for 48 hrs by sulforhodamine B assay; type: functional
[17] = tested on: Panel NCI-60 (60 carcinoma cell lines); experiment: Growth inhibition of human Panel NCI-60 (60 carcinoma cell lines) incubated for 48 hrs by sulforhodamine B assay; type: functional
[18] = tested on: SR; experiment: Growth inhibition of human SR cells incubated for 48 hrs by sulforhodamine B assay; type: functional
[19] = tested on: SW-620; experiment: Growth inhibition of human SW-620 cells incubated for 48 hrs by sulforhodamine B assay; type: functional
[20] = tested on: K562; experiment: Growth inhibition of human K562 cells incubated for 48 hrs by sulforhodamine B assay; type: functional
[21] = tested on: UACC-62; experiment: Growth inhibition of human UACC-62 cells at 10 uM incubated for 48 hrs by sulforhodamine B assay relative to control; type: functional; conditions: read-out: GI
[22] = tested on: MCF7; experiment: Growth inhibition of human MCF7 cells incubated for 48 hrs by sulforhodamine B assay; type: functional
[23] = tested on: MDA-MB-468; experiment: Growth inhibition of human MDA-MB-468 cells at 10 uM incubated for 48 hrs by sulforhodamine B assay relative to control; type: functional; conditions: read-out: GI
[24] = tested on: SK-MEL-2; experiment: Growth inhibition of human SK-MEL-2 cells incubated for 48 hrs by sulforhodamine B assay; type: functional
[25] = tested on: OVCAR-5; experiment: Growth inhibition of human OVCAR-5 cells at 10 uM incubated for 48 hrs by sulforhodamine B assay relative to control; type: functional; conditions: read-out: GI
[26] = tested on: IGROV-1; experiment: Growth inhibition of human IGROV-1 cells incubated for 48 hrs by sulforhodamine B assay; type: functional
[27] = tested on: OVCAR-3; experiment: Growth inhibition of human OVCAR-3 cells at 10 uM incubated for 48 hrs by sulforhodamine B assay relative to control; type: functional; conditions: read-out: GI
[28] = tested on: HOP-92; experiment: Growth inhibition of human HOP-92 cells incubated for 48 hrs by sulforhodamine B assay; type: functional
[29] = tested on: BV-2; experiment: Antiinflammatory activity against mouse BV2 cells assessed as inhibition of LPS-induced TNFalpha production at 1 uM by enzyme immunoassay; type: functional
[30] = tested on: U-251; experiment: Growth inhibition of human U-251 cells incubated for 48 hrs by sulforhodamine B assay; type: functional
[31] = tested on: CAKI-1; experiment: Growth inhibition of human CAKI-1 cells incubated for 48 hrs by sulforhodamine B assay; type: functional
[32] = tested on: OVCAR-4; experiment: Growth inhibition of human OVCAR-4 cells at 10 uM incubated for 48 hrs by sulforhodamine B assay relative to control; type: functional; conditions: read-out: GI
[33] = tested on: OVCAR-3; experiment: Growth inhibition of human OVCAR-3 cells incubated for 48 hrs by sulforhodamine B assay; type: functional
[34] = tested on: SF-295; experiment: Growth inhibition of human SF-295 cells incubated for 48 hrs by sulforhodamine B assay; type: functional
[35] = tested on: NCI-H460; experiment: Growth inhibition of human NCI-H460 cells at 10 uM incubated for 48 hrs by sulforhodamine B assay relative to control; type: functional; conditions: read-out: GI
[36] = tested on: MDA-MB-231; experiment: Growth inhibition of human MDA-MB-231 cells incubated for 48 hrs by sulforhodamine B assay; type: functional
[37] = tested on: IGROV-1; experiment: Growth inhibition of human IGROV-1 cells at 10 uM incubated for 48 hrs by sulforhodamine B assay relative to control; type: functional; conditions: read-out: GI
[38] = tested on: BV-2; experiment: Antiinflammatory activity against mouse BV2 cells assessed as reduction in LPS-induced IL6 production at 1 uM by enzyme immunoassay; type: functional, cell-based
[39] = tested on: UO-31; experiment: Growth inhibition of human UO-31 cells at 10 uM incubated for 48 hrs by sulforhodamine B assay relative to control; type: functional; conditions: read-out: GI
[40] = tested on: SF-295; experiment: Growth inhibition of human SF-295 cells at 10 uM incubated for 48 hrs by sulforhodamine B assay relative to control; type: functional; conditions: read-out: GI
[41] = tested on: U-251; experiment: Growth inhibition of human U-251 cells at 10 uM incubated for 48 hrs by sulforhodamine B assay relative to control; type: functional; conditions: read-out: GI
[42] = tested on: HOP-92; experiment: Growth inhibition of human HOP-92 cells at 10 uM incubated for 48 hrs by sulforhodamine B assay relative to control; type: functional; conditions: read-out: GI
[43] = tested on: NCI-H226; experiment: Growth inhibition of human NCI-H226 cells at 10 uM incubated for 48 hrs by sulforhodamine B assay relative to control; type: functional; conditions: read-out: GI
[44] = tested on: T47D; experiment: Growth inhibition of human T47D cells incubated for 48 hrs by sulforhodamine B assay; type: functional
[45] = tested on: BV-2; experiment: Cytotoxicity against mouse BV2 cells incubated for 48 hrs by MTT assay; type: cell-based; conditions: BV-2, 48 h
[46] = tested on: TK-10; experiment: Growth inhibition of human TK-10 cells incubated for 48 hrs by sulforhodamine B assay; type: functional
[47] = tested on: T47D; experiment: Growth inhibition of human T47D cells at 10 uM incubated for 48 hrs by sulforhodamine B assay relative to control; type: functional; conditions: read-out: GI
[48] = tested on: HCT-116; experiment: Growth inhibition of human HCT-116 cells at 10 uM incubated for 48 hrs by sulforhodamine B assay relative to control; type: functional; conditions: read-out: GI
[49] = tested on: SW-620; experiment: Growth inhibition of human SW-620 cells at 10 uM incubated for 48 hrs by sulforhodamine B assay relative to control; type: functional; conditions: read-out: GI
[50] = tested on: UACC-62; experiment: Growth inhibition of human UACC-62 cells incubated for 48 hrs by sulforhodamine B assay; type: functional
[51] = tested on: OVCAR-4; experiment: Growth inhibition of human OVCAR-4 cells incubated for 48 hrs by sulforhodamine B assay; type: functional
[52] = tested on: OVCAR-5; experiment: Growth inhibition of human OVCAR-5 cells incubated for 48 hrs by sulforhodamine B assay; type: functional
[53] = tested on: K562; experiment: Growth inhibition of human K562 cells at 10 uM incubated for 48 hrs by sulforhodamine B assay relative to control; type: functional; conditions: read-out: GI
[54] = tested on: HOP-62; experiment: Growth inhibition of human HOP-62 cells at 10 uM incubated for 48 hrs by sulforhodamine B assay relative to control; type: functional; conditions: read-out: GI
[55] = tested on: NCI-H226; experiment: Growth inhibition of human NCI-H226 cells incubated for 48 hrs by sulforhodamine B assay; type: functional
[56] = tested on: MDA-MB-231; experiment: Growth inhibition of human MDA-MB-231 cells at 10 uM incubated for 48 hrs by sulforhodamine B assay relative to control; type: functional; conditions: read-out: GI
[57] = read-out: LC50 (the source's name)

O=C1COCCN1c1ccc(NCc2cn(Cc3ccc(F)cc3)c3ccccc23)cc1
inhibition of growth at 10 µM [1]: 68% | inhibition of growth at 10 µM [2]: 100% | GI50 [3]: 50 nM | CC50 [3, 57]: > 100000 nM | GI50 [4]: 2750 nM | GI50 [5]: 200 nM | inhibition of growth at 10 µM [6]: 98% | GI50 [7]: 540 nM | TI [8]: 54 | GI50 [9]: 1470 nM | inhibition of growth at 10 µM [10]: 100% | Activity [11]: Active | inhibition of growth at 10 µM [12]: 100% | GI50 [13]: 20 nM | CC50 [13, 57]: 500 nM | inhibition of growth at 10 µM [14]: 100% | inhibition of growth at 10 µM [15]: 100% | GI50 [16]: 120 nM | GI50 [17]: 1310 nM | TGI [17]: 15100 nM | CC50 [17, 57]: 70800 nM | GI50 [18]: 4500 nM | GI50 [19]: 480 nM | GI50 [20]: 1510 nM | inhibition of growth at 10 µM [21]: 100% | GI50 [22]: 110 nM | inhibition of growth at 10 µM [23]: 100% | GI50 [24]: 1200 nM | inhibition of growth at 10 µM [25]: 100% | GI50 [26]: 30 nM | CC50 [26, 57]: > 100000 nM | inhibition of growth at 10 µM [27]: 100% | GI50 [28]: 1540 nM | Activity [29]: Active | GI50 [30]: 1410 nM | GI50 [31]: 20 nM | CC50 [31, 57]: > 100000 nM | inhibition of growth at 10 µM [32]: 100% | GI50 [33]: 280 nM | GI50 [34]: 1090 nM | inhibition of growth at 10 µM [35]: 93% | GI50 [36]: 3800 nM | inhibition of growth at 10 µM [37]: 100% | Activity [38]: Active | inhibition of growth at 10 µM [39]: 96% | inhibition of growth at 10 µM [40]: 90% | inhibition of growth at 10 µM [41]: 80% | inhibition of growth at 10 µM [42]: 96% | inhibition of growth at 10 µM [43]: 100% | GI50 [44]: 70 nM | IC50 [45]: > 10000 nM | GI50 [46]: 40 nM | CC50 [46, 57]: > 100000 nM | inhibition of growth at 10 µM [47]: 99% | inhibition of growth at 10 µM [48]: 96% | inhibition of growth at 10 µM [49]: 87% | GI50 [50]: 40 nM | CC50 [50, 57]: 800 nM | GI50 [51]: 150 nM | GI50 [52]: 40 nM | CC50 [52, 57]: > 100000 nM | inhibition of growth at 10 µM [53]: 89% | inhibition of growth at 10 µM [54]: 77% | GI50 [55]: 40 nM | CC50 [55, 57]: 1100 nM | inhibition of growth at 10 µM [56]: 72%

O=C1COCCN1c1ccc(N2C(=O)C(Cl)C2c2cn(Cc3ccc(Cl)cc3)c3ccccc23)cc1 (configuration not stated)
IC50 [45]: > 10000 nM

Source: ChEMBL document CHEMBL4814018, “Rationally designed TNF-α inhibitors: Identification of promising cytotoxic agents” (Bioorg Med Chem Lett, 2021)
